pKi: −log10 of the molar value. Read-outs that look alike come from different tables or passages of the source.
How the values were obtained:
[1] = biological target: DDR1 (Homo sapiens (Human), UniProt Q08345); experiment: DDR1 binding assay (LanthaScreen Europium Kinase Binding assay)
Description: (§1) DDR1 and DDR2 binding assays were performed using Life Technologies LanthaScreen™ Europium Kinase Binding assay. The compounds were incubated with 5 nM DDR1 (Carna Biosciences) or 5 nM DDR2 (Life Technologies) for 1 h at rt in white 384-well OptiPlate (PerkinElmer), containing 20 nM or 10 nM Kinase Tracer 178 respectively and 2 nM Europium labelled anti-GST antibody (Life Technologies) in assay buffer (50 mM HEPES pH 7.5, 10 mM MgCI2, 1 mM EGTA and 0.01% BRIJ35). The ratio of fluorescence emission 665 nm/615 nm after excitation at 340 nm was obtained using the Tecan Spark 20M plate reader. IC50 values were determined in GraphPad Prism 7.0 software, using 4 parameter model: log(inhibitor) vs. response. IC50 values were converted in Ki using the Cheng-Prusoff equation (Ki=IC50/(1+[Tracer]/Kd).

[2] = biological target: DDR2 (Homo sapiens (Human), UniProt Q16832); experiment: DDR2 binding assay (LanthaScreen Europium Kinase Binding assay)
Description: as §1

[3] = 5 nM DDR1, 20 nM Kinase Tracer 178, 1 h at rt, Ki from IC50 by Cheng-Prusoff, read-out: Ki DDR1
[4] = 5 nM DDR2, 10 nM Kinase Tracer 178, 1 h at rt, Ki from IC50 by Cheng-Prusoff, read-out: Ki DDR2

Sequence of DDR1 (Q08345 19-913): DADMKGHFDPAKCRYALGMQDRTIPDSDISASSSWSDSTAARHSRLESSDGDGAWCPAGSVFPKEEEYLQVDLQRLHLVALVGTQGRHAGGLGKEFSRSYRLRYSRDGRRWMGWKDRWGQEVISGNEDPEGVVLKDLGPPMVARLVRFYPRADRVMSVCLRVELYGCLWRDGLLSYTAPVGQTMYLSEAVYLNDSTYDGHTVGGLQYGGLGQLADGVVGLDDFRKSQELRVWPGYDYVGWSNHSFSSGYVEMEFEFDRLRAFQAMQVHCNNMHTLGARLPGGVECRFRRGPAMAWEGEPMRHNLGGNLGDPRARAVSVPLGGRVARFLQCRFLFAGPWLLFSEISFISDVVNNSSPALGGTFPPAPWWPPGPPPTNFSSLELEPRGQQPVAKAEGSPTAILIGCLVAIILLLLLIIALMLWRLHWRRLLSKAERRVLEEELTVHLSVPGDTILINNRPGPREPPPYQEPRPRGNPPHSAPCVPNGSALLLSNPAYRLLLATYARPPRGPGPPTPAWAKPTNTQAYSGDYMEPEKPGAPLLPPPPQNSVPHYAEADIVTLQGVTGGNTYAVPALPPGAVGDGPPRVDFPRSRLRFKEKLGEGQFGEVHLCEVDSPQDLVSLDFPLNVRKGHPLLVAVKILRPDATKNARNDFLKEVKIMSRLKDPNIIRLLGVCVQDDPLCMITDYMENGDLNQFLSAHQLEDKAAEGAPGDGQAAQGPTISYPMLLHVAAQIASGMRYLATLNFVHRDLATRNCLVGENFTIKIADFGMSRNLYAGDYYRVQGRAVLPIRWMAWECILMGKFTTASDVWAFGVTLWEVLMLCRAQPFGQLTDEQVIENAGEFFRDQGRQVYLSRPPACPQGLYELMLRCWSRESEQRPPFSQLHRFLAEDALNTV
Sequence of DDR2 (Q16832 22-855): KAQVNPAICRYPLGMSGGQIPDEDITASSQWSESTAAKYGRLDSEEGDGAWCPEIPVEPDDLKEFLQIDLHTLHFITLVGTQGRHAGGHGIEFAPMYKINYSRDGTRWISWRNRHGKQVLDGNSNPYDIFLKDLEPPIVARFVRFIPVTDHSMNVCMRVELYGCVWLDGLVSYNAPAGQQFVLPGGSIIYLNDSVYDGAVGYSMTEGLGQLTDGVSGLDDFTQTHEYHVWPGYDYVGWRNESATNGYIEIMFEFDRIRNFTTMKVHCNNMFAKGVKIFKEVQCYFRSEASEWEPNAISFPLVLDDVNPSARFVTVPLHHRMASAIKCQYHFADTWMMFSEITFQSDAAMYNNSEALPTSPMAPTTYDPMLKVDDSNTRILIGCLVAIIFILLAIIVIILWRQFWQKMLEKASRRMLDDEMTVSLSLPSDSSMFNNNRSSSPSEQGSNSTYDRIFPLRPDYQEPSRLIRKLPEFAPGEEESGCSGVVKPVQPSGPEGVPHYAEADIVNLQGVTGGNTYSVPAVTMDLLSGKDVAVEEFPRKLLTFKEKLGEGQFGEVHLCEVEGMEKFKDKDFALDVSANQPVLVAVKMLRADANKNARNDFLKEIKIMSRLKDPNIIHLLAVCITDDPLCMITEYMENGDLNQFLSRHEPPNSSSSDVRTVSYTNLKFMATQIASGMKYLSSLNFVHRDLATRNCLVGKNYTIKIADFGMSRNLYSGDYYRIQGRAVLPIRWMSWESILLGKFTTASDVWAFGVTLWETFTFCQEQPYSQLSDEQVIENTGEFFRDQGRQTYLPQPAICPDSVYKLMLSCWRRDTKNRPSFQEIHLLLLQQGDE

Row | Compound | pKi [1, 3] | pKi [2, 4] | pKi ([1]; same binding assay, numeric values, read-out: DDR1 Ki) | pKi ([2]; same binding assay, numeric values, read-out: DDR2 Ki)
1 | 4-methyl-3-((1-(pyrimidin-5-yl)azetidin-3-yl)thio)-N-(5-(trifluoromethyl)pyridin-3-yl)benzamide [Example 177] | 7.60 to 8.30 | 7.00 to 7.60 | – | –
2 | Cc1ccc(C(=O)Nc2cncc(C(F)(F)F)c2)cc1NC1CN(C(=O)c2cnn3ccncc23)C1 [Compound C1, 4-methyl-3-((1-(pyrazolo[1,5-a]pyrazine-3-carbonyl)azetidin-3-yl)amino)-N-(5-(trifluoromethyl)pyridin-3-yl)benzamide, reference compound] | – | – | 6.94 | 6.51
3 | Cc1ccc(C(=O)Nc2cncc(C(F)(F)F)c2)cc1OC1CN(c2cncnc2)C1 [Example 135, 4-methyl-3-((1-(pyrimidin-5-yl)azetidin-3-yl)oxy)-N-(5-(trifluoromethyl)pyridin-3-yl)benzamide] | > 8.30 | 7.60 to 8.30 | – | –
4 | Cc1ccc(C(=O)Nc2cncc(C(F)(F)F)c2)cc1OC1CN(c2cnn3ccncc23)C1 [Example 136, 4-methyl-3-((1-(pyrazolo[1,5-a]pyrazin-3-yl)azetidin-3-yl)oxy)-N-(5-(trifluoromethyl)pyridin-3-yl)benzamide] | > 8.30 | > 8.30 | – | –
5 | CC(=O)Nc1ccn2ncc(N3CC(Oc4cc(C(=O)Nc5cncc(C(F)(F)F)c5)ccc4C)C3)c2n1 [Example 138, 3-((1-(5-acetamidopyrazolo[1,5-a]pyrimidin-3-yl)azetidin-3-yl)oxy)-4-methyl-N-(5-(trifluoromethyl)pyridin-3-yl)benzamide] | > 8.30 | 7.60 to 8.30 | – | –
6 | Cc1ccc(C(=O)Nc2cncc(C(F)(F)F)c2)cc1OC1CN(c2cncc(C(N)=O)c2)C1 [Example 139, 5-(3-(2-methyl-5-((5-(trifluoromethyl)pyridin-3-yl)carbamoyl)phenoxy)azetidin-1-yl)nicotinamide] | – | 7.60 to 8.30 | – | –
7 | Cc1ccc(C(=O)Nc2cncc(C(F)(F)F)c2)cc1NC1CN(c2cnn3ccncc23)C1 [Example 140, 4-methyl-3-((1-(pyrazolo[1,5-a]pyrazin-3-yl)azetidin-3-yl)amino)-N-(5-(trifluoromethyl)pyridin-3-yl)benzamide] | > 8.30 | 7.60 to 8.30 | – | –
8 | Cc1ccc(C(=O)Nc2cncc(C(F)(F)F)c2)cc1NC1CN(c2cncc(-c3cnn(C)c3)c2)C1 [Example 144, 4-methyl-3-((1-(5-(1-methyl-1H-pyrazol-4-yl)pyridin-3-yl)azetidin-3-yl)amino)-N-(5-(trifluoromethyl)pyridin-3-yl)benzamide] | > 8.30 | 7.60 to 8.30 | – | –
9 | Cc1ccc(C(=O)Nc2cncc(C(F)(F)F)c2)cc1OC1CN(c2cnc3cnccn23)C1 [Example 146, 3-((1-(imidazo[1,2-a]pyrazin-3-yl)azetidin-3-yl)oxy)-4-methyl-N-(5-(trifluoromethyl)pyridin-3-yl)benzamide] | > 8.30 | > 8.30 | – | –
10 | Cc1ccc(C(=O)Nc2cc(C(C)(C)C)on2)cc1NC1CN(c2cnn3ccncc23)C1 [Example 150, N-(5-(tert-butyl)isoxazol-3-yl)-4-methyl-3-((1-(pyrazolo[1,5-a]pyrazin-3-yl)azetidin-3-yl)amino)benzamide] | 7.60 to 8.30 | 7.00 to 7.60 | – | –
11 | Cc1ccc(C(=O)Nc2cncc(C(F)(F)F)c2)cc1N(C)C1CN(c2cnn3ccncc23)C1 [Example 151, 4-methyl-3-(methyl(1-(pyrazolo[1,5-a]pyrazin-3-yl)azetidin-3-yl)amino)-N-(5-(trifluoromethyl)pyridin-3-yl)benzamide] | > 8.30 | 7.60 to 8.30 | – | –
12 | CCc1cc(NC(=O)c2ccc(C)c(OC3CN(c4cnn5ccncc45)C3)c2)no1 [Example 152, N-(5-ethylisoxazol-3-yl)-4-methyl-3-((1-(pyrazolo[1,5-a]pyrazin-3-yl)azetidin-3-yl)oxy)benzamide] | 7.60 to 8.30 | 7.00 to 7.60 | – | –
13 | Cc1ccc(C(=O)Nc2cncc(C(F)(F)F)c2)cc1C(C)C1CN(c2cnn3ccncc23)C1 (stereo not shown) [Example 175, 4-methyl-3-(1-(1-(pyrazolo[1,5-a]pyrazin-3-yl)azetidin-3-yl)ethyl)-N-(5-(trifluoromethyl)pyridin-3-yl)benzamide] | – | 7.60 to 8.30 | – | –

The remaining lines, values ahead:

Row | pKi [1, 3] | pKi [2, 4] | pKi ([1]; same binding assay, numeric values, read-out: DDR1 Ki) | pKi ([2]; same binding assay, numeric values, read-out: DDR2 Ki) | Compound
14 | 7.60 to 8.30 | 7.00 to 7.60 | – | – | Cc1ccc(C(=O)Nc2cncc(C(F)(F)F)c2)cc1NC1CN(c2cncnc2)C1 [Example 134, 4-methyl-3-((1-(pyrimidin-5-yl)azetidin-3-yl)amino)-N-(5-(trifluoromethyl)pyridin-3-yl)benzamide]
15 | > 8.30 | > 8.30 | – | – | Cc1ccc(C(=O)Nc2cncc(C(F)(F)F)c2)cc1OC1CN(c2cnc3ccccn23)C1 [Example 137, 3-((1-(imidazo[1,2-a]pyridin-3-yl)azetidin-3-yl)oxy)-4-methyl-N-(5-(trifluoromethyl)pyridin-3-yl)benzamide]
16 | > 8.30 | 7.60 to 8.30 | – | – | CNc1ccn2ncc(N3CC(Oc4cc(C(=O)Nc5cncc(C(F)(F)F)c5)ccc4C)C3)c2n1 [Example 141, 4-methyl-3-((1-(5-(methylamino)pyrazolo[1,5-a]pyrimidin-3-yl)azetidin-3-yl)oxy)-N-(5-(trifluoromethyl)pyridin-3-yl)benzamide]
17 | > 8.30 | 7.60 to 8.30 | – | – | Cc1ccc(C(=O)Nc2cncc(C(F)(F)F)c2)cc1OC1CN(c2cnn3cccnc23)C1 [Example 142, 4-methyl-3-((1-(pyrazolo[1,5-a]pyrimidin-3-yl)azetidin-3-yl)oxy)-N-(5-(trifluoromethyl)pyridin-3-yl)benzamide]
18 | > 8.30 | > 8.30 | – | – | Cc1ccc(C(=O)Nc2cncc(C(F)(F)F)c2)cc1OC1CN(c2cncc(-c3cnn(C)c3)c2)C1 [Example 143, 4-methyl-3-((1-(5-(1-methyl-1H-pyrazol-4-yl)pyridin-3-yl)azetidin-3-yl)oxy)-N-(5-(trifluoromethyl)pyridin-3-yl)benzamide]
19 | > 8.30 | > 8.30 | – | – | CC(=O)Nc1cncc(N2CC(Oc3cc(C(=O)Nc4cncc(C(F)(F)F)c4)ccc3C)C2)c1 [Example 145, 3-((1-(5-acetamidopyridin-3-yl)azetidin-3-yl)oxy)-4-methyl-N-(5-(trifluoromethyl)pyridin-3-yl)benzamide]
20 | > 8.30 | > 8.30 | – | – | Cc1ccc(C(=O)Nc2cncc(C(F)(F)F)c2)cc1NC1CN(c2cnc3cnccn23)C1 [Example 147, 3-((1-(imidazo[1,2-a]pyrazin-3-yl)azetidin-3-yl)amino)-4-methyl-N-(5-(trifluoromethyl)pyridin-3-yl)benzamide]
21 | 7.60 to 8.30 | 7.60 to 8.30 | – | – | Cc1ccc(C(=O)Nc2cncc(C(F)(F)F)c2)cc1NC1CN(c2cnn3cccnc23)C1 [Example 148, 4-methyl-3-((1-(pyrazolo[1,5-a]pyrimidin-3-yl)azetidin-3-yl)amino)-N-(5-(trifluoromethyl)pyridin-3-yl)benzamide]
22 | 7.60 to 8.30 | 7.60 to 8.30 | – | – | Cc1ccc(C(=O)Nc2cc(C(C)(C)C)no2)cc1NC1CN(c2cnn3ccncc23)C1 [Example 149, N-(3-(tert-butyl)isoxazol-5-yl)-4-methyl-3-((1-(pyrazolo[1,5-a]pyrazin-3-yl)azetidin-3-yl)amino)benzamide]
23 | – | 7.60 to 8.30 | – | – | Cc1ccc(C(=O)Nc2cncc(C(F)(F)F)c2)cc1C(C)C1CN(c2cnn3ccncc23)C1 (stereo not shown) [Example 176, 4-methyl-3-(1-(1-(pyrazolo[1,5-a]pyrazin-3-yl)azetidin-3-yl)ethyl)-N-(5-(trifluoromethyl)pyridin-3-yl)benzamide]
